Experimental data as given in patent US5256548A, “Antiviral antibiotic BU-4344V” (Bristol-Myers Squibb Company, priority 1992, dated 1993).
Converted amounts (≈) assume the structure as drawn.

Key:
[1] = tested on: Herpes Simplex Virus Type I; assay: Plaque reduction assay, herpes simplex virus (Vero cells); format: cell-based, herpes simplex virus type 1
Vero cells [2] = assay: Plaque reduction assay, minimal toxic dose (Vero cells); format: cell-based
Method: In vitro antiviral activity of BU-4344V was assessed using the herpes simplex virus type 1 (KOS strain) - Vero cell and influenza virus type A (Victoria strain) - Madin Darby canine kidney (MDCK) cell systems by the dye-uptake assay method [Antiviral Research, 3, 223-234 (1986)]. The cell suspension (200 μl ), containing 2×10^4 cells, was inoculated to each well of 96-well microplates and cultured at 37° C. for 48-72 hours under humidified 5% CO2 -95% air environment. The growth medium in each well was replaced with 250 μl of fresh medium (Eagle MEM without serum) containing BU-4344V at various doses, and then 50 μl medium containing approximately 10×TCID50 of the viruses was added to each well. For cytotoxicity tests, the same set of wells, without the viruses, were prepared. After 72 hours of incubation, the degree of inhibition of the viral-induced cytopathic effect and the drug-induced cytotoxicity were determined. […] The antiviral activity of BU-4344V was also determined using a conventional plaque reduction assay method.

[3] = tested on: herpes simplex virus type 1 (KOS strain); settings: 72 h
Vero cells [4] = settings: dye-uptake assay, Vero cells without viral infection, 72 hours
[5] = tested on: influenza virus type A (Victoria strain); assay: Dye-uptake assay, inhibition of viral-induced cytopathic effect, influenza virus - MDCK cell system; format: cell-based; settings: MDCK cells, 72 hours
Influenza Virus Type A = assay: Plaque reduction assay, influenza virus (MDCK cells); format: cell-based

| Structure (SMILES) | ID50 [1] [µg/mL] | MTD (Minimal Toxic Dose) (Vero cells [2]) [µg/mL] | ID50 (concentration showing 50% inhibition of the cytopathic effect) [3] [µg/mL] | TD50 (concentration exhibiting 50% cytotoxicity) (Vero cells [4]) [µg/mL] | ID50 (concentration showing 50% inhibition of the cytopathic effect) [5] [µg/mL] | ID50 (Influenza Virus Type A) [µg/mL] |
| --- | --- | --- | --- | --- | --- | --- |
| Nc1nc2c(ncn2COCCO)c(=O)[nH]1 [Acyclovir, reference compound] | 0.25 (≈ 1.11 µM) | > 100 | 0.2 | > 100 | – | – |
| NC(=O)c1ncn([C@@H]2O[C@H](CO)[C@@H](O)[C@H]2O)n1 [Ribavirin, reference compound] | – | – | – | – | 10 | 3.8 (≈ 15.6 µM) |
